Experimental findings from patent US20090221656A1, “Drug Combinations” (priority 2006, published 2009) are described below.

Data set [1] can be described thus: NA and DA tissue levels in heart and brain after administration of Compound 1. The format is in vivo, mice and rats. Conditions: mouse and rat, in vivo; mice and rats; after administration. The text has this: (§1) Compound 1 ((R)-5-(2-aminoethyl)-1-(6,8-difluorochroman-3-yl)-1,3-dihydroimidazole-2-thione hydrochloride) is a new chemical entity that integrates a series of potent inhibitors of dopamine β-hydroxylase (DBH) that were designed and synthesised incorporating modifications to the core structure of nepicastat. The aim was to provide new DBH inhibitors exerting minimal effects on dopamine (DA) and noradrenaline (NA) levels in the brain. Compound 1 is in a fact a potent and peripherally-selective DBH inhibitor. […] Compound 1 is thus presented as a candidate for clinical evaluation for the treatment of chronic heart failure and hypertension. Compound 1, together with a series of related compounds, is described in WO 2004/033447.

Data set [2] has as its system dopamine β-hydroxylase (DBH). Described as above. The format is in vivo, mice and rats.
Description: as §1

The mark [3] stands for this setting: mice and rats, at Tmax (9 h after administration).

By Tmax is commonly meant the time from dosing to the highest level. In the case of `Cl.NCCc1c[nH]c(=S)n1[C@H]1COc2c(F)cc(F)cc2C1` [Compound 1, (R)-5-(2-aminoethyl)-1-(6,8-difluorochroman-3-yl)-1,3-dihydroimidazole-2-thione hydrochloride], in data set [1], the Tmax came out at 9 h. For the same compound, in data set [2] (brain), the “DA tissue levels in brain” value is given as “failed to affect” and the “NA tissue levels in brain” value is listed as “failed to affect”. In data set [2] (setting [3]), the “NA levels in the left atrium” value was “reduced NA levels in a dose-dependent manner” and the “NA levels in the left ventricle” value is given as “reduced NA levels in a dose-dependent manner”. The “dose at which the maximal inhibitory effect on NA levels was attained” value in data set [2] (mice and rats, left atrium and left ventricle, 9 h after administration) is recorded as 100 mg/kg.
